What was measured:
tubulin = tubulin aggregation (polymerization) assay, OD 340 nm; format: biochemical
Text: This assay has been described, for example, in Shelanski, M. L., Gaskin, F. and Cantor, C. R. (1973). Microtubule assembly in the absence of added nucleotides. Proc. Natl. Acad. Sci. U.S.A. 70, 765-768; and Lee, J. C. and Timasheff, S. N. (1977). In vitro reconstitution of calf brain microtubules: effects of solution variable. Biochemistry, 16, 1754-1762.
The assay protocol was designed for performing a single assay in a cuvette using a spectrophotometer set at 340 nm in a kinetic mode. HTS-Tubulin was purchased from Cytoskeleton, Inc. and is supplied in multiple vials as lyophilized protein. […]
The tubulin-assembly reaction was carried out by exposing the tubulin in GPEM buffer, at a concentration of 1.5 mg/ml to the following polymerization conditions: (i) a buffer (control), (ii) tubulin alone (2nd control); (iii) taxol, added to a final concentration of 4 μM, and (iv) the M2(3) taxol signal from above, transduced over a 20 minute period at a transduction voltage calculated to produce an approximately 1.693294 mG magnetic field. Change in optical absorption at 340 nm was measured continuously for each sample, and the OD340 data was used to calculate a rate of tubulin polymerization (dA/minute at 340 nm) at each one minute interval during the transduction study.
The Vmax of the reaction was also calculated for each sample at the end of the 20 minute assay period. […]

[1] = the compound itself; not examined in the study; cited from earlier work

CC(=O)O[C@H]1C(=O)[C@@]2(C)[C@H]([C@H](OC(=O)c3ccccc3)[C@]3(O)C[C@H](OC(=O)[C@H](O)[C@@H](NC(=O)c4ccccc4)c4ccccc4)C(C)=C1C3(C)C)[C@]1(OC(C)=O)CO[C@@H]1C[C@@H]2O [taxol]
rate of tubulin polymerization (dA/minute at 340 nm) (tubulin; at two minutes, taxol 4 μM, FIG. 16B): increased significantly
Vmax (single composite, maximum rate of reaction over the entire assay) (tubulin; taxol at 4 μM, tubulin 1.5 mg/ml in GPEM buffer, end of 20 minute assay, FIG. 17): ~1.8
delivery to the brain [1]: poorly deliver to the brain

Reference: US20100244818A1, “APPARATUS AND METHOD FOR TRANSDUCING AN IN VITRO OR MAMMALIAN SYSTEM WITH A LOW-FREQUENCY SIGNAL” (priority 2006, published 2010)
